{"source": "patent US7452913B2", "about": "“Polymorphs of pyrrole substituted 2-indolinone protein kinase inhibitors” (Pharmacia & Upjohn Company, priority 2003, dated 2008)", "type_in_all_cases": "physicochemical", "key": {"[1]": {"experiment": "Estimation of the solubility of a polymorph in various solvents", "conditions": "thermodynamic from solid", "protocol": "Estimation of the Solubility of a Polymorph in Various Solvents.\nApproximately 1.5 mg of the polymorph, was transferred to 10 mL glass vials (tared) and was weighed (accurate to 0.1 mg). Solvents were added to the vials (one solvent each vial) in a step-wise fashion. After each addition, the vial was capped and shaken. The dissolution of solid was visually observed. If no obvious dissolution was observed, more solvent was added immediately. If dissolution was apparent, the vial was left on the bench for at least 30 minutes before the next addition of solvent. This step was repeated until no crystals were visible against a black and a white background. The solubility was then bracketed by dividing the weight by the final volume and the volume before the last addition. If a solid remained after the addition of 10 mL solvent, the solubility was expressed as less than the weight divided by the final volume. If the solid was completely dissolved after the first addition of solvent, the solubility was expressed as greater than the weight divided by the solvent volume. The solubility values were expressed as mg/mL. All experiments were conducted at room temperature.\nThe estimated solubilities of 5-[5-fluoro-2-oxo-1,2-dihydroindol-(3Z)-ylidenmethyl]-2,4-dimethyl-1H-pyrrole-3-carboxylic acid (2-pyrrolidin-1-ylethyl)-amide in various solvents are presented in Table A. The experiments were carried out using polymorph I at room temperature. The solubilities may be divided into three groups."}, "[2]": {"experiment": "pKa"}, "[3]": {"experiment": "Equilibrium solution pH of non-buffered aqueous medium after adding the compound", "conditions": "for Equilibrium solution pH: non-buffered aqueous medium, ambient temperature", "protocol": "Determination of the pH—Solubility Profile of Polymorphs.\nAbout 3 mL aqueous solutions of various concentrations of either HCl or NaOH, providing a pH from 1-13, were transferred to a 10 ml glass vial. A sufficient amount of the polymorph was added. The vials were wrapped with aluminum foil and manually shaken. They were allowed to sit in the fume hood overnight prior to any further treatment.\nAs expected, the equilibrium solubility of this compound is higher at lower solution pH (Table A). However, the dissolution of a particle in a dissolution medium depends on the pH in the diffusion layer. The pH value of the diffusion layer in intimate contact with the solid (pHh=0) may be obtained from equilibrium pH of the solution, measured by a pH meter. Results are presented in Table B. When the initial pH is higher than 10, the solubility of 5-[5-fluoro-2-oxo-1,2-dihydroindol-(3Z)-ylidenmethyl]-2,4-dimethyl-1 H-pyrrole-3-carboxylic acid (2-pyrrolidin-1-ylethyl)-amide is very low. Therefore, the pH of the solution at equilibrium is almost not changed. On the other hand, if the initial pH<10, more 5-[5-fluoro-2-oxo-1,2-dihydroindol-(3Z)-ylidenmethyl]-2,4-dimethyl-1H-pyrrole-3-carboxylic acid (2-pyrrolidin-1-ylethyl)-amide goes into solution and the equilibrium solution pH is higher than the initial pH (Table B)."}, "[4]": {"experiment": "Rotating disc intrinsic dissolution rate (IDR) determination", "conditions": "for Color change of pellet side exposed to dissolution medium (solid-state conversion): 0.05M KCl, pH 2 buffer, original pellet yellow; for IDR (n = 3): pH = 2 buffer (0.01 N HCl and 0.05 M KCl) at 23° C.", "protocol": "Rotating Disc Intrinsic Dissolution Rate (IDR) Determination. The IDR was measured using a fiber optic UV automated dissolution system. The dissolution process was monitored in some instances continuously at 426.2 nm using the fiber optic probe with 10 data points taken per minute. To prepare the compressed disc for the experiment, the powders were compressed in a stainless steel (SS) die, (1¼″ dia×1″, ID 3/16″) using a high speed steel (HSS) punch (diameter 3/16″ and length 3½″). The HSS punch was inserted into the die to a distance of about ¾″, leaving about ¼″ for placement of about 10 mg of the drug into the die cavity. A SS base plate (diameter ¼″) was placed to cover the cavity. The entire assembly was then secured by a 2-bolt holder. A Carver press was used to compress the powder at to ˜1,000 lbs (˜37,000 psi) for 3 minutes. The die and holder was removed from the Carver press and the punch was pulled back a little to allow the pellet to relax/expand. The die was then tightly attached on the HSS punch by a set-screw. The entire punch and die assembly containing the drug pellet with one face of the drug pellet exposed was removed as a unit from the holder and was attached to an electric motor. The die was rotated at 300 rpm and was lowered into the dissolution medium 3 min after the initiation of the data collection program. The dissolution medium was degassed and was contained in a 500 mL water jacketed beaker (Pyrex, No.1000). The data collect during the first 3 min provided a baseline value for each dissolution experiment. The dissolution medium consisted of pH=2 solution (0.01 N HCl and 0.05 M KCl). The die was positioned such that the drug compact was about 2.5″ from the bottom of the 500 mL dissolution vessel and about the same distance from the liquid surface. The intrinsic dissolution profile was plotted using Microsoft Excel and the intrinsic dissolution rate was calculated automatically by the program according to equation (1). The volume of dissolution medium was 300 mL. The surface area of the pellet exposed to dissolution medium was 0.177 cm^2. The time period for a dissolution run was usually 15 min but was varied as needed."}, "[5]": {"experiment": "Slurry conversion (suspension crystallization), resulting solid identified by PXRD", "conditions": "room temperature; for Resulting solid by PXRD: stirred 2 weeks", "protocol": "To determine the relative thermodynamic stability relationship between two polymorphs, a slurry conversion experiment was also studied at room temperature using PXRD.\nPolymorph I, 20 mg, was suspended in various solvents alone with trace amount of polymorph II seeding crystals in 10 mL glass vials. The suspensions were stirred by magnetic stirring bars for 2 weeks before the solids were filtered and analyzed by PXRD. […] Because the solubility in THF is higher than that in acetone (Table A), low solubility is not the reason for the slow conversion kinetics."}, "[6]": {"experiment": "Suspension of polymorphs in pH 2 dissolution medium (HCl salt formation test)", "conditions": "for Color change of suspended particles: at least 15 minutes after suspension; for Appearance of suspension: one day after preparation", "excerpt": "To further test the HCl salt formation hypothesis. Both polymorph I and II were suspended in the above dissolution medium. […] It is also possible that compaction prior to the IDR experiment modify the crystals of polymorph I and render it the ability of rapid conversion. The XRD pattern of polymorph I pellets compressed at various pressures show some degree of amorphous content, which may be connected to its rapid salt formation during the IDR experiment."}}, "note": "Read-outs that look alike come from different tables or passages of the source. Marks after values point to notes of the source that are not given here.", "data": [{"molecule": "Cc1[nH]c(/C=C2\\C(=O)Nc3ccc(F)cc32)c(C)c1C(=O)NCCN1CCCC1", "note": "[5-[5-fluoro-2-oxo-1,2-dihydroindol-(3Z)-ylidenmethyl]-2,4-dimethyl-1H-pyrrole-3-carboxylic acid (2-pyrrolidin-1-ylethyl)-amide]", "values": [{"measurement": "solubility", "setting": "[1]; DMF and pH<=2 water (one solvent per vial), organic solvent or mixture, DMSO, DMF and pH<=2 water, polymorph I, room temperature, read-out: Solubility (Group III solvents)", "value": "> 1000", "unit": "µg/mL"}, {"measurement": "solubility", "setting": "[1]; dioxane and THF (one solvent per vial), organic solvent or mixture, methanol, ethanol, dioxane and THF, polymorph I, room temperature, read-out: Solubility (Group II solvents)", "value": "100 to 400", "unit": "µg/mL"}, {"measurement": "solubility", "setting": "[1]; organic solvent or mixture, isopropyl alcohol, CH2Cl2, ethyl acetate, acetonitrile, acetone, chloroform, toluene, hexane and pH>6 water, polymorph I, room temperature, read-out: Solubility (Group I solvents)", "value": "< 300", "unit": "µg/mL"}, {"measurement": "pKa", "setting": "[2]", "value": 8.5}, {"measurement": "pH of the diffusion layer in contact with the solid (pHh=0)", "setting": "[3]; bulk dissolution medium pH as low as 1.4", "value": "> 5"}, {"measurement": "Solubility at initial pH higher than 10", "setting": "[3]; initial pH higher than 10, aqueous", "value": "very low"}, {"measurement": "Equilibrium solution pH", "setting": "[3]; initial solution pH 1.43", "value": 5.36}, {"measurement": "Equilibrium solution pH", "setting": "[3]; initial solution pH 2.19", "value": 5.20}, {"measurement": "Equilibrium solution pH", "setting": "[3]; initial solution pH 3.22", "value": 6.98}, {"measurement": "Equilibrium solution pH", "setting": "[3]; initial solution pH 5.47", "value": 8.13}, {"measurement": "Equilibrium solution pH", "setting": "[3]; initial solution pH 6.73", "value": 8.31}, {"measurement": "Equilibrium solution pH", "setting": "[3]; initial solution pH 7.24", "value": 8.49}, {"measurement": "Equilibrium solution pH", "setting": "[3]; initial solution pH 7.61", "value": 8.87}, {"measurement": "Equilibrium solution pH", "setting": "[3]; initial solution pH 10.07", "value": 9.86}, {"measurement": "Equilibrium solution pH", "setting": "[3]; initial solution pH 11.53", "value": 11.61}, {"measurement": "Equilibrium solution pH", "setting": "[3]; initial solution pH 12.50", "value": 12.52}, {"measurement": "Equilibrium solution pH", "setting": "[3]; initial solution pH 13.20", "value": 13.18}]}, {"molecule": "Cc1[nH]c(/C=C2\\C(=O)Nc3ccc(F)cc32)c(C)c1C(=O)NCCN1CCCC1", "note": "[polymorph I, 5-[5-fluoro-2-oxo-1,2-dihydroindol-(3Z)-ylidenmethyl]-2,4-dimethyl-1H-pyrrole-3-carboxylic acid (2-pyrrolidin-1-ylethyl)-amide]", "values": [{"measurement": "solubility", "setting": "[1]; aqueous buffer, Water (pH = 2), 23° C., read-out: Solubility", "value": 3110, "unit": "µg/mL"}, {"measurement": "solubility", "setting": "[1]; aqueous buffer, Water (pH = 6), 23° C., read-out: Solubility", "value": 5, "unit": "µg/mL"}, {"measurement": "solubility", "setting": "[1]; organic solvent or mixture, Acetone, 23° C., read-out: Solubility", "value": "< 160", "unit": "µg/mL"}, {"measurement": "solubility", "setting": "[1]; organic solvent or mixture, Acetonitrile, 23° C., read-out: Solubility", "value": "< 80", "unit": "µg/mL"}, {"measurement": "solubility", "setting": "[1]; organic solvent or mixture, CH2Cl2, 23° C., read-out: Solubility", "value": "< 120", "unit": "µg/mL"}, {"measurement": "solubility", "setting": "[1]; organic solvent or mixture, Chloroform, 23° C., read-out: Solubility", "value": "< 110", "unit": "µg/mL"}, {"measurement": "solubility", "setting": "[1]; organic solvent or mixture, DMF, 23° C., read-out: Solubility", "value": "> 1500", "unit": "µg/mL"}, {"measurement": "solubility", "setting": "[1]; organic solvent or mixture, DMSO, 23° C., read-out: Solubility", "value": "1500 to 3000", "unit": "µg/mL"}, {"measurement": "solubility", "setting": "[1]; organic solvent or mixture, Dioxane, 23° C., read-out: Solubility", "value": "180 to 200", "unit": "µg/mL"}, {"measurement": "solubility", "setting": "[1]; organic solvent or mixture, Ethyl acetate, 23° C., read-out: Solubility", "value": "< 280", "unit": "µg/mL"}, {"measurement": "solubility", "setting": "[1]; organic solvent or mixture, Hexane, 23° C., read-out: Solubility", "value": "< 130", "unit": "µg/mL"}, {"measurement": "solubility", "setting": "[1]; organic solvent or mixture, Isopropanol, 23° C., read-out: Solubility", "value": "< 140", "unit": "µg/mL"}, {"measurement": "solubility", "setting": "[1]; organic solvent or mixture, PEG 400, 23° C., read-out: Solubility", "value": "300 to 430", "unit": "µg/mL"}, {"measurement": "solubility", "setting": "[1]; organic solvent or mixture, THF, 23° C., read-out: Solubility", "value": "320 to 400", "unit": "µg/mL"}, {"measurement": "solubility", "setting": "[1]; organic solvent or mixture, Toluene, 23° C., read-out: Solubility", "value": "< 130", "unit": "µg/mL"}, {"measurement": "solubility", "setting": "[1]; organic solvent or mixture, ethanol, 23° C., read-out: Solubility", "value": "170 to 190", "unit": "µg/mL"}, {"measurement": "solubility", "setting": "[1]; organic solvent or mixture, methanol, 23° C., read-out: Solubility", "value": "210 to 310", "unit": "µg/mL"}, {"measurement": "Color change of pellet side exposed to dissolution medium (solid-state conversion)", "setting": "[4]", "value": "orange-red"}, {"measurement": "IDR (n = 3)", "setting": "[4]", "value": "1.08 ± 0.09^c mg/min/cm^2"}, {"measurement": "Resulting solid by PXRD", "setting": "[5]; Acetone suspension", "value": "converts to polymorph II"}, {"measurement": "Resulting solid by PXRD", "setting": "[5]; Methanol suspension", "value": "converts to polymorph II"}, {"measurement": "Resulting solid by PXRD", "setting": "[5]; THF suspension", "value": "appears stable"}, {"measurement": "Color change of suspended particles", "setting": "[6]", "value": "no change of color"}, {"measurement": "Appearance of suspension", "setting": "[6]", "value": "orange-red needle-shaped crystals"}]}, {"molecule": "Cc1[nH]c(/C=C2\\C(=O)Nc3ccc(F)cc32)c(C)c1C(=O)NCCN1CCCC1", "note": "[polymorph II, 5-[5-fluoro-2-oxo-1,2-dihydroindol-(3Z)-ylidenmethyl]-2,4-dimethyl-1H-pyrrole-3-carboxylic acid (2-pyrrolidin-1-ylethyl)-amide]", "values": [{"measurement": "Color change of pellet side exposed to dissolution medium (solid-state conversion)", "setting": "[4]", "value": "No obvious color change"}, {"measurement": "IDR of polymorph II relative to apparent IDR of polymorph I", "setting": "[4]; pH 2 buffer at 23° C.", "value": "about three times"}, {"measurement": "IDR (n = 3)", "setting": "[4]", "value": "3.54 ± 0.15", "unit": "mg/min/cm^2"}, {"measurement": "Relative thermodynamic stability of the polymorphs", "setting": "[5]", "value": "thermodynamically more stable than polymorph I"}, {"measurement": "Color change of suspended particles", "setting": "[6]", "value": "no change of color"}, {"measurement": "Appearance of suspension", "setting": "[6]", "value": "orange-red needle-shaped crystals"}]}]}
